# Measured values from patent publication US8822503B2, “2-pyridone compounds” (Taisho Pharmaceutical Co., Ltd, priority 2009, dated 2014).
# Molecular target: T1, human liver GK (Homo sapiens, UniProt P35557)
# T1 construct: GST (glutathione S-transferase) (N); made in house; host or cells: E. coli
# T1 sequence (P35557 1-466 isoform P35557-2): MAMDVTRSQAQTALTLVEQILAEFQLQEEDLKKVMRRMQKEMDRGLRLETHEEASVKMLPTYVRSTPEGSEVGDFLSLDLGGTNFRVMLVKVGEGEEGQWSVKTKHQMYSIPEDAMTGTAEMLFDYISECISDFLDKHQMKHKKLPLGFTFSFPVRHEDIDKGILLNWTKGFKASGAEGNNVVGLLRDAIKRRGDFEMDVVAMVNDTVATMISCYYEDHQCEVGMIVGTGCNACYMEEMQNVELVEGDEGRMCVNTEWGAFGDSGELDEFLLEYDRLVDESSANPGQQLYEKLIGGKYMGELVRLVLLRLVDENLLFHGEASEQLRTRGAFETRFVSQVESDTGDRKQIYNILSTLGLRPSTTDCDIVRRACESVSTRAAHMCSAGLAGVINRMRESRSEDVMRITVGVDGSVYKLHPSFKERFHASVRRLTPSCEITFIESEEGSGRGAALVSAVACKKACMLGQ
# Assay: GK activation test
# Format: biochemical
# Details: test compound concentration needed to activate 50% of maximum activation ability; 4 mM 14C-labeled glucose, 2 mM ATP, room temperature, 20 minutes
# In short: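 GST-tagged human liver GK from E. coli (0.24 μg/well) with 4 mM 14C-glucose, 2 mM ATP in Hepes-KOH pH 7.1, KCl, MgCl2, DTT, 1% DMSO, 20 min room temperature. Labeled glucose 6-phosphate captured on anion resin, eluted and counted. EC50 = concentration giving half of maximal activation.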
row,Structure (SMILES),EC50
1,"CC(C)Oc1ccc(C(C[C@H]2CCC(=O)N2)c2ccc(Cl)c(=O)[nH]2)cc1Cl (single isomer, unassigned) [Example 4-297]",3000 to 10000 nM
2,"CC(=O)NC/C=C(\c1ccc(C(C)(C)C)cc1)c1ccc(Cl)c(=O)[nH]1 [Example 6-35, N-[(2E)-3-(4-tert-Butylphenyl)-3-(5-chloro-6-oxo-1,6-dihydropyridin-2-yl)prop-2-en-1-yl]acetamide]",3000 to 10000 nM
3,"CC(C)(C)c1ccc(/C(=C\Cn2cccnc2=O)c2ccc(Cl)c(=O)[nH]2)cc1 [Example 6-32, 1-[(2E)-3-(4-tert-Butylphenyl)-3-(5-chloro-6-oxo-1,6-dihydropyridin-2-yl)prop-2-en-1-yl]pyrimidin-2(1H)-one]",3000 to 10000 nM
4,"O=C1CC[C@H](CC(c2ccc(S(=O)(=O)C3CC3)c(Cl)c2)c2ccc(C3CC3)c(=O)[nH]2)N1 (single isomer, unassigned) [Example 4-343]",3000 to 10000 nM
5,"O=c1[nH]c(/C(=C/C2CCOC2)c2ccc(SC3CC3)cc2)ccc1C(F)(F)F (stereo not shown) [Example 1-48, 6-{(E)-1-[4-(Cyclopropylsulfanyl)phenyl]-2-(tetrahydrofuran-3-yl)ethenyl}-3-(trifluoromethyl)pyridin-2(1H)-one]",500 to 3000 nM
6,"CC(C)(C)c1ccc(/C(=C\[C@H]2CCN(C(=O)C3CCOCC3)C2)c2ccc(Cl)c(=O)[nH]2)cc1 [Example 4-93, 6-{(E)-1-(4-tert-Butylphenyl)-2-[(3R)-1-(tetrahydro-2H-pyran-4-ylcarbonyl)pyrrolidin-3-yl]ethenyl}-3-chloropyridin-2(1H)-one]",3000 to 10000 nM
7,"CSc1ccc(C(CC2CCOCC2)c2ccc(C)c(=O)[nH]2)cc1 (stereo not shown) [Example 2-18, 3-Methyl-6-{1-[4-(methylsulfanyl)phenyl]-2-(tetrahydro-2H-pyran-4-yl)ethyl}pyridin-2(1H)-one]",3000 to 10000 nM
8,"CC(C)(C)c1ccc(/C(=C\[C@H]2CCC(=O)N2)c2ccc(N)c(=O)[nH]2)cc1 [Example 4-173, 3-Amino-6-{(E)-1-(4-tert-butylphenyl)-2-[(2R)-5-oxopyrrolidin-2-yl]ethenyl}pyridin-2(1H)-one]",500 to 3000 nM
9,"CC(C)Cc1ccc(/C(=C\[C@H]2CCC(=O)N2)c2ccc(Cl)c(=O)[nH]2)cc1 [Example 4-29, 3-Chloro-6-{(E)-1-[4-(2-methylpropyl)phenyl]-2-[(2R)-5-oxopyrrolidin-2-yl]ethenyl}pyridin-2(1H)-one]",500 to 3000 nM
10,"Cc1ccc(C(C[C@H]2CCC(=O)C2)c2ccc(S(C)(=O)=O)cc2)[nH]c1=O (stereo partly drawn) [Example 2-23, 3-Methyl-6-{1-[4-(methylsulfonyl)phenyl]-2-[(1R)-3-oxocyclopentyl]ethyl}pyridin-2(1H)-one]",3000 to 10000 nM
11,"O=C1CC[C@H](/C=C(\c2cccc(SC3CC3)c2)c2ccc(Cl)c(=O)[nH]2)N1 [Example 4-36, 3-Chloro-6-{(E)-1-[3-(cyclopropylsulfanyl)phenyl]-2-[(2R)-5-oxopyrrolidin-2-yl]ethenyl}pyridin-2(1H)-one]",3000 to 10000 nM
12,"O=C1CC[C@H](/C=C(\c2ccc(OC(F)(F)F)cc2)c2ccc(Cl)c(=O)[nH]2)N1 [Example 4-30, 3-Chloro-6-{(E)-2-[(2R)-5-oxopyrrolidin-2-yl]-1-[4-(trifluoromethoxy)phenyl]ethenyl}pyridin-2(1H)-one]",500 to 3000 nM
13,"CCOc1ccc(C(C[C@H]2CCC(=O)N2)c2ccc(Cl)c(=O)[nH]2)cc1C (single isomer, unassigned) [Example 4-239]",500 to 3000 nM
14,"COc1ccc(/C(=C\C2CCOCC2)c2ccc(C(F)(F)F)c(=O)[nH]2)cc1Cl [Example 1-54, 6-[(E)-1-(3-Chloro-4-methoxyphenyl)-2-(tetrahydro-2H-pyran-4-yl)ethenyl]-3-(trifluoromethyl)pyridin-2(1H)-one]",500 to 3000 nM

# Further lines, results first:
row,EC50,Structure (SMILES)
1,10 to 500 nM,"CCc1ccc(C(C[C@H]2CCC(=O)N2)c2ccc(C3CC3)c(=O)[nH]2)cc1 (single isomer, unassigned) [Example 4-302]"
2,10 to 500 nM,"CN1CCN(C/C=C(\c2ccc(C(C)(C)C)cc2)c2ccc(Cl)c(=O)[nH]2)C1=O [Example 6-16, 6-[(1E)-1-(4-tert-Butylphenyl)-3-(3-methyl-2-oxoimidazolidin-1-yl)prop-1-en-1-yl]-3-chloropyridin-2(1H)-one]"
3,500 to 3000 nM,"CCCOc1ccc(C(C[C@H]2CCC(=O)N2)c2ccc(C3CC3)c(=O)[nH]2)cc1 (single isomer, unassigned) [Example 4-352]"
4,500 to 3000 nM,"CCCc1ccc(C(CC2CCCC2)c2ccc(S(C)(=O)=O)cc2)[nH]c1=O (stereo not shown) [Example 2-9, 6-{2-Cyclopentyl-1-[4-(methylsulfonyl)phenyl]ethyl}-3-propylpyridin-2(1H)-one]"
5,10 to 500 nM,"CN1C(=O)CC[C@@H]1/C=C(\c1ccc(C(C)(C)C)cc1)c1ccc(Cl)c(=O)[nH]1 [Example 4-146, 6-{(E)-1-(4-tert-Butylphenyl)-2-[(2R)-1-methyl-5-oxopyrrolidin-2-yl]ethenyl}-3-chloropyridin-2(1H)-one]"
6,10 to 500 nM,"CSc1ccc(/C(=C\C2CCCC2)c2ccc(C3CC3)c(=O)[nH]2)cc1 [Example 1-5, 6-{(E)-2-Cyclopentyl-1-[4-(methylsulfanyl)phenyl]ethenyl}-3-cyclopropylpyridin-2(1H)-one]"
7,10 to 500 nM,"CC(C)Oc1ccc(C(C[C@H]2CCC(=O)N2)c2ccc(C3CC3)c(=O)[nH]2)cc1F (single isomer, unassigned) [Example 4-350]"
8,500 to 3000 nM,"CC(=O)Nc1ccc(/C(=C\C2CCCC2)c2ccc(Cl)c(=O)[nH]2)cc1 [Example 1-105, N-{4-[(E)-1-(5-Chloro-6-oxo-1,6-dihydropyridin-2-yl)-2-cyclopentylethenyl]phenyl}acetamide]"
9,10 to 500 nM,"CC(C)(C)c1ccc(/C(=C\[C@H]2CCC(=O)N2)c2ccc(Br)c(=O)[nH]2)cc1 [Example 4-177, 3-Bromo-6-{(E)-1-(4-tert-butylphenyl)-2-[(2R)-5-oxopyrrolidin-2-yl]ethenyl}pyridin-2(1H)-one]"
10,10 to 500 nM,"Cc1ccc(/C(=C\[C@H]2CCC(=O)N2)c2ccc(C3CC3)c(=O)[nH]2)cc1C [Example 4-115, 3-Cyclopropyl-6-{(E)-1-(3,4-dimethylphenyl)-2-[(2R)-5-oxopyrrolidin-2-yl]ethenyl}pyridin-2(1H)-one]"
11,10 to 500 nM,"Cc1ccc(/C(=C/C2CCCC2)c2ccc(S(=O)(=O)CCCO)c(Cl)c2)[nH]c1=O [Example 1-23, 6-[(E)-1-{3-Chloro-4-[(3-hydroxypropyl)sulfonyl]phenyl}-2-cyclopentylethenyl]-3-methylpyridin-2(1H)-one]"
12,10 to 500 nM,"CN(CCO)S(=O)(=O)c1ccc(/C(=C\[C@H]2CCC(=O)N2)c2ccc(C3CC3)c(=O)[nH]2)cc1 [Example 4-140, 4-{(E)-1-(5-Cyclopropyl-6-oxo-1,6-dihydropyridin-2-yl)-2-[(2R)-5-oxopyrrolidin-2-yl]ethenyl}-N-(2-hydroxyethyl)-N-methylbenzenesulfonamide]"
13,10 to 500 nM,"O=C1CC[C@H](/C=C(\c2ccc(SC(F)(F)F)cc2)c2ccc(C3CC3)c(=O)[nH]2)N1 [Example 4-141, 3-Cyclopropyl-6-[(E)-2-[(2R)-5-oxopyrrolidin-2-yl]-1-{4-[(trifluoromethyl)sulfanyl]phenyl}ethenyl]pyridin-2(1H)-one]"
14,10 to 500 nM,"CC(C)(C)c1ccc(/C(=C\[C@H]2CCC(=O)N2)c2ccc(-c3cnoc3)c(=O)[nH]2)cc1 [Example 4-184, 6-{(E)-1-(4-tert-Butylphenyl)-2-[(2R)-5-oxopyrrolidin-2-yl]ethenyl}-3-(1,2-oxazol-4-yl)pyridin-2(1H)-one]"
